Experimental data from DBAASP.
Values after ≈ are worked out from the molar mass of the structure shown.

Columns and labels:
Experiment in all cases: ≥ marks a high value that may be exact or a test limit, other limits are often not marked, values filed in µg/mL are converted to µM
[1] = test system: Listeria monocytogenes EGD
[2] = test system: Pseudomonas aeruginosa ATCC 27853
[3] = test system: Klebsiella pneumoniae ATCC 700603
[4] = test system: Staphylococcus aureus ATCC 33591
[5] = test system: Acinetobacter baumannii CR17
[6] = test system: Escherichia coli ATCC 25922
[7] = test system: Acinetobacter baumannii ATCC BAA-1605
[8] = test system: Acinetobacter baumannii ATCC 19606
[9] = test system: Enterococcus faecium ATCC 700221
Escherichia coli = test system: Escherichia coli
Escherichia coli BW25113 = test system: Escherichia coli BW25113
[10] = test system: Escherichia coli BW25113 ΔsbmA
[11] = test system: Staphylococcus aureus ATCC 25923
Escherichia coli K88 = test system: Escherichia coli K88
[12] = test system: Salmonella typhimurium ATCC 7731
Escherichia coli K99 = test system: Escherichia coli K99
[13] = test system: Staphylococcus epidermidis ATCC 12228
Escherichia coli UB1005 = test system: Escherichia coli UB1005
[14] = test system: Bacillus cereus CGMCC 1.932
[15] = test system: Listeria monocytogenes CGMCC 1.1075
Escherichia coli 078 = test system: Escherichia coli 078
[16] = test system: Enterococcus faecalis ATCC 29212
[17] = test system: Bacillus subtilis CMCC 63501
[18] = test system: Salmonella enterica subsp. enterica serovar Pullorum ATCC 7913
[19] = test system: Pseudomonas aeruginosa PAO1
Acinetobacter baumannii = test system: Acinetobacter baumannii
[20] = test system: Salmonella enterica subsp. enterica serovar Typhimurium ATCC 14028
[21] = test system: Staphylococcus aureus ATCC 43300

CC[C@H](C)[C@H](NC(=O)[C@H](Cc1cnc[nH]1)NC(=O)[C@@H](NC(=O)[C@H](CCCN=C(N)N)NC(=O)[C@H](CCCCN)NC(=O)[C@H](CCCN=C(N)N)NC(=O)[C@H](CCCCN)NC(=O)[C@H](CC(N)=O)NC(=O)[C@H](Cc1ccc(O)cc1)NC(=O)[C@H](CC(N)=O)NC(=O)[C@@H]1CCCN1C(=O)[C@H](CCCN=C(N)N)NC(=O)[C@@H](NC(=O)[C@@H](N)CS)[C@@H](C)O)[C@@H](C)CC)C(=O)NCC(=O)O [CTRPNYNKRKRIHIG] was tested, and the MIC [1] was 5.76 µM (≈ 10.7 µg/mL).

Work on CC[C@H](C)[C@H](NC(=O)[C@H](CCCCN)NC(=O)[C@H](CCCCN)NC(=O)[C@H](Cc1ccccc1)NC(=O)[C@H](CC(C)C)NC(=O)[C@H](CCCCN)NC(=O)[C@@H](N)CCCCN)C(=O)N[C@@H](CC(C)C)C(=O)N[C@@H](CCCN=C(N)N)C(=O)N[C@@H](Cc1ccc(O)cc1)C(=O)N[C@@H](CC(C)C)C(N)=O [KKLFKKILRYL] yielded an MIC [2] of 11.7 µM (≈ 17 µg/mL), an MIC [3] of 5.86 µM (≈ 8.49 µg/mL) and an MIC [4] of 23.1 µM (≈ 33.5 µg/mL). The MIC [5] was ≥ 32.7 µM, the MIC [6] was 5.86 µM (≈ 8.49 µg/mL) and the MIC [7] was 2.76 µM (≈ 4 µg/mL). The MIC [8] was 5.86 µM (≈ 8.49 µg/mL) and the MIC [9] was 5.86 µM (≈ 8.49 µg/mL).

With CC[C@H](C)[C@H](NC(=O)[C@@H]1CCCN1C(=O)[C@@H]1CCCN1C(=O)[C@H](CCCN=C(N)N)NC(=O)[C@H](Cc1ccccc1)NC(=O)[C@@H](N)CCCN=C(N)N)C(=O)N[C@@H](CCCN=C(N)N)C(=O)N[C@@H](CCCN=C(N)N)C(=O)N1CCC[C@H]1C(=O)N1CCC[C@H]1C(=O)N[C@H](C(=O)N[C@@H](CCCN=C(N)N)C(=O)N1CCC[C@H]1C(=O)N1CCC[C@H]1C(=O)N[C@@H](Cc1ccccc1)C(=O)N[C@@H](Cc1ccc(O)cc1)C(=O)N[C@@H](CCCN=C(N)N)C(=O)O)[C@@H](C)CC [RFRPPIRRPPIRPPFYR] the MIC [2] was > 64 µM, the MIC [3] was > 64 µM and the MIC (Escherichia coli) was 4 µM (≈ 8.89 µg/mL). The MIC (Escherichia coli BW25113) was 8 µM (≈ 17.8 µg/mL), the MIC [10] was ≥ 64 µM and the MIC [8] was 64 µM (≈ 142 µg/mL). For the same molecule, the MIC [11] was > 64 µM.

Work on NC(=O)[C@H](Cc1ccccc1)NC(=O)[C@H](CCCN=C(N)N)NC(=O)[C@H](Cc1c[nH]c2ccccc12)NC(=O)[C@H](CCCN=C(N)N)NC(=O)[C@H](Cc1c[nH]c2ccccc12)NC(=O)[C@H](Cc1c[nH]c2ccccc12)NC(=O)[C@H](Cc1c[nH]c2ccccc12)NC(=O)[C@H](CCCN=C(N)N)NC(=O)[C@H](Cc1c[nH]c2ccccc12)NC(=O)[C@@H](N)CCCN=C(N)N [RWRWWWRWRF] yielded an MIC (Escherichia coli K88) of 4 µM (≈ 6.88 µg/mL), an MIC [2] of 16 µM (≈ 27.5 µg/mL) and an MIC [12] of 4 µM (≈ 6.88 µg/mL). It also gave an MIC (Escherichia coli K99) of 4 µM (≈ 6.88 µg/mL), an MIC [13] of 2 µM (≈ 3.44 µg/mL) and an MIC (Escherichia coli UB1005) of 8 µM (≈ 13.8 µg/mL). The MIC [14] was 8 µM (≈ 13.8 µg/mL), the MIC [15] was 1 µM (≈ 1.72 µg/mL) and the MIC (Escherichia coli 078) was 4 µM (≈ 6.88 µg/mL). For the same molecule, the MIC [16] was 4 µM (≈ 6.88 µg/mL), the MIC [17] was 2 µM (≈ 3.44 µg/mL) and the MIC [18] was 8 µM (≈ 13.8 µg/mL). For the same molecule, the MIC [19] was 4 µM (≈ 6.88 µg/mL), the MIC (Acinetobacter baumannii) was 2 µM (≈ 3.44 µg/mL) and the MIC [20] was 8 µM (≈ 13.8 µg/mL). For the same molecule, the MIC [21] was 2 µM (≈ 3.44 µg/mL) and the MIC [11] was 2 µM (≈ 3.44 µg/mL).
